Activity calls are given as the source filed them. How the calls were made is not given here.
Molecular target: Activin receptor type-1 (Homo sapiens) (UniProt Q04771)
Test: ACVR1 enzymatic activity inhibition – biochemical, secondary in vitro, SAR follow-up (AID 652276)
Details: in vitro ALK2 kinase assay; for remaining activity (low = inhibition): at 100 µM (top of the series)

Activin receptor type-1 (Homo sapiens), sequence (Q04771 whole entry, looked up): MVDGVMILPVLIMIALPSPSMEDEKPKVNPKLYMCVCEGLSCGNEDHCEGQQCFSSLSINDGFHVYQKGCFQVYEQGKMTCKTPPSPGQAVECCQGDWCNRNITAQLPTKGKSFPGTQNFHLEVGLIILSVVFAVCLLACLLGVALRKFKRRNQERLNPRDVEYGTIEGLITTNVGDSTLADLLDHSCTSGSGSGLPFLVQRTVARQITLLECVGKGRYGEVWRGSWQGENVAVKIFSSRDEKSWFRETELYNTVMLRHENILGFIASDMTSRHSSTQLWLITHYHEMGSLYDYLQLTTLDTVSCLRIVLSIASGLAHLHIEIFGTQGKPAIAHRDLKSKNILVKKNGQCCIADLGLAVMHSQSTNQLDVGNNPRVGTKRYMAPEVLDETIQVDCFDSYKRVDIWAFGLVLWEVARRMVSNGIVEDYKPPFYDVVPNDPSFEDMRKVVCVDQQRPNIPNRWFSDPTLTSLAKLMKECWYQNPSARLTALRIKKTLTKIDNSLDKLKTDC

remaining activity (low = inhibition) | IC50 | Compound
inactive |  | COc1ccc(-c2cnc3c(-c4cccc5cccnc45)cnn3c2)cc1
 | 110 nM | COc1ccc(-c2cnc3c(-c4cn[nH]c4)cnn3c2)cc1
 | 121 nM | COc1ccc(-c2cnc3c(-c4ccnc5ncccc45)cnn3c2)cc1
 | 33 nM | COc1ccc(-c2cnc3c(-c4ccnc5ccccc45)cnn3c2)cc1

Second part, the compound before the results:

Compound | remaining activity (low = inhibition) | IC50
CN1CCN(c2ccc(-c3cnc4c(-c5ccnc6ccccc56)cnn4c3)cc2)CC1 | -0.03 | 
c1cc(N2CCNCC2)ccc1-c1cnc2c(-c3cn[nH]c3)cnn2c1 |  | 43 nM
c1ccc2c(-c3cnn4cc(-c5ccc(N6CCOCC6)cc5)cnc34)ccnc2c1 | 0.93 | 
c1cc(N2CCOCC2)ccc1-c1cnc2c(-c3cn[nH]c3)cnn2c1 |  | 53 nM

From PubChem BioAssay AID652276 (Vanderbilt Specialized Chemistry Center, 2013)
